According to patent US20150105252A1, “SUBSTITUTED PYRAZOLES AS HERBICIDES” (E I DU PONT DE NEMOURS AND COMPANY, priority 2013, published 2015):

Experiments:
crabgrass, large = assay: Test A preemergence; type: in vivo, Digitaria sanguinalis; settings: 0 to 100 scale
In short: (§1)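 Ratings express plant response from 0 (no effect) to 100 (complete control), judged visually against untreated controls after approximately 10 days in the greenhouse. Preemergence applications were made as directed soil sprays onto seeded loam–sand mix, and postemergence applications onto 2–10 cm plants at one- to two-leaf stage.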

ducksalad = assay: Test B flood; type: in vivo, Heteranthera limosa; settings: 250 g ai/ha, visual rating on 0 to 100 scale (0 no effect, 100 complete control), 13 to 15 days
In short: (§2)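 Each compound is applied to the floodwater of pots holding 2-leaf seedlings, water standing 3 cm over the soil throughout. Plants stay in a greenhouse 13 to 15 days before visual scoring against controls from 0 (no effect) to 100 (complete control).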

morningglory [1] = assay: Test C postemergence; type: in vivo, Ipomoea coccinea; settings: for Morningglory plant response rating / Plant response rating, Morningglory: postemergence; for Morningglory plant response rating: 62 g ai/ha, scale 0 to 100
From the text: Seeds of plant species selected from blackgrass (Alopecurus myosuroides), ryegrass, Italian (Italian ryegrass, Lolium multiflorum), wheat (winter wheat, Triticum aestivum), galium (catchweed bedstraw, Galium aparine), corn (Zea mays), crabgrass, large (large crabgrass, Digitaria sanguinalis), foxtail, giant (giant foxtail, Setaria faberii), johnsongrass (Sorghum halepense), lambsquarters (Chenopodium album), morningglory (Ipomoea coccinea), nutsedge, yellow (yellow nutsedge, Cyperus esculentus), pigweed (redroot pigweed, Amaranthus retroflexus), ragweed (common ragweed, Ambrosia elation), soybean (Glycine max), barnyardgrass (Echinochloa crus-galli), oilseed rape (Brassica napus), waterhemp (common waterhemp, Amaranthus rudis), oat, wild (wild oat, Avena fatua), kochia (Kochia scoparia), Surinam grass (Brachiaria decumbens), foxtail, green (green foxtail, Setaria viridis), goosegrass (Eleusine indica), bromegrass, downy (downy bromegrass, Bromus tectorum), nightshade (eastern black nightshade, Solanum ptycanthum), cocklebur (common cocklebur, Xanthium strumarium), cupgrass, woolly (woolly cupgrass, Eriochloa villosa), bermudagrass (Cynodon dactylon), sunflower, (common oilseed sunflower, Helianthus annuus), Russian thistle (Salsola kali), and velvetleaf (Abutilon theophrasti) were planted into a blend of loam soil and sand and treated preemergence with test chemicals formulated in a non-phytotoxic solvent mixture which included a surfactant.
At the same time, plants selected from these crop and weed species and also chickweed (common chickweed, Stellaria media), canarygrass (littleseed canarygrass, Phalaris minor), and deadnettle (henbit deadnettle, Lamium amplexicaule), were planted in pots containing Redi-Earth® planting medium (Scotts Company, 14111 Scottslawn Road, Marysville, Ohio 43041) comprising spaghnum peat moss, vermiculite, wetting agent and starter nutrients and treated with postemergence applications of test chemicals formulated in the same manner. Plants ranged in height from 2 to 18 cm (1- to 4-leaf stage) for postemergence treatments. Treated plants and controls were maintained in a greenhouse for 13 to 15 days, after which time all species were compared to controls and visually evaluated. Plant response ratings, summarized in Table C, are based on a scale of 0 to 100 where 0 is no effect and 100 is complete control. A dash (-) response means no test result.

sedge, umbrella = assay: Test B flood; type: in vivo, Cyperus difformis; settings: 250 g ai/ha, visual rating on 0 to 100 scale (0 no effect, 100 complete control), 13 to 15 days
In short: as §2

corn [2] = assay: Test C postemergence; type: in vivo, Zea mays; settings: for Plant response rating (scale of 0 to 100 where 0 is no effect and 100 is complete control), Corn: 31 g ai/ha, visually evaluated after 13 to 15 days; for Corn plant response rating / Plant response rating, Corn: postemergence; for Corn plant response rating: 62 g ai/ha, scale 0 to 100
In short: (§3)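 Visual rating, 0–100 scale (0 no effect, 100 complete control), vs untreated controls after 13–15 d greenhouse. Pre: seeds in loam/sand, treated at sowing. Post: plants in peat-based mix, 1- to 4-leaf (2–18 cm). Solvent + surfactant formulation, non-phytotoxic.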

foxtail, giant = assay: Test A postemergence; type: in vivo, Setaria faberii
In short: as §1

galium = assay: Test C postemergence; type: in vivo, Galium aparine; settings: for Plant response rating (scale of 0 to 100 where 0 is no effect and 100 is complete control), Galium: 31 g ai/ha, visually evaluated after 13 to 15 days; for Galium plant response rating / Plant response rating, Galium: postemergence; for Galium plant response rating: 62 g ai/ha, scale 0 to 100
In short: as §3

barnyardgrass = assay: Test B flood; type: in vivo, Echinochloa crus-galli; settings: 250 g ai/ha, visual rating on 0 to 100 scale (0 no effect, 100 complete control), 13 to 15 days
In short: as §2

ragweed = assay: Test C postemergence; type: in vivo, Ambrosia elation; settings: for Plant response rating (scale of 0 to 100 where 0 is no effect and 100 is complete control), Ragweed: 31 g ai/ha, visually evaluated after 13 to 15 days; for Ragweed plant response rating / Plant response rating, Ragweed: postemergence; for Ragweed plant response rating: 62 g ai/ha, scale 0 to 100
In short: as §3

velvetleaf = assay: Test A preemergence; type: in vivo, Abutilon theophrasti; settings: 0 to 100 scale
In short: as §1

waterhemp = assay: Test C postemergence; type: in vivo, Amaranthus rudis; settings: for Plant response rating (scale of 0 to 100 where 0 is no effect and 100 is complete control), Waterhemp: 31 g ai/ha, visually evaluated after 13 to 15 days; for Waterhemp plant response rating / Plant response rating, Waterhemp: postemergence; for Waterhemp plant response rating: 62 g ai/ha, scale 0 to 100
In short: as §3

morningglory [3] = assay: Test A preemergence; type: in vivo, Ipomoea spp.; settings: 0 to 100 scale
In short: as §1

pigweed = assay: Test C postemergence; type: in vivo, Amaranthus retroflexus; settings: for Plant response rating (scale of 0 to 100 where 0 is no effect and 100 is complete control), Pigweed: 31 g ai/ha, visually evaluated after 13 to 15 days; for Pigweed plant response rating / Plant response rating, Pigweed: postemergence; for Pigweed plant response rating: 62 g ai/ha, scale 0 to 100
In short: as §3

corn [4] = assay: Test A preemergence; type: in vivo, Zea mays; settings: 0 to 100 scale
In short: as §1

ryegrass, Italian = assay: Test C preemergence; type: in vivo, Lolium multiflorum; settings: for Ryegrass, Italian plant response rating: preemergence
In short: as §3

[5] = Preemergence, 500 g ai/ha, 0 no effect, 100 complete control
[6] = preemergence, 125 g ai/ha, visual injury, approx. 10 days
[7] = 125 g ai/ha, scale 0 to 100, 0 no effect, 100 complete control
[8] = postemergence, 125 g ai/ha, about 10 days, visual rating on 0 to 100 scale (0 no effect, 100 complete control)
[9] = 250 g ai/ha, scale 0 to 100 (0 no effect, 100 complete control)

Compound | Plant response rating, Ducksalad (ducksalad) | Morningglory plant response rating (morningglory [1]) | Plant response rating, Morningglory (morningglory [1]; [7]) | Plant response rating, Sedge, Umbrella (sedge, umbrella) | Plant response rating (scale of 0 to 100 where 0 is no effect and 100 is complete control), Corn (corn [2]; Postemergence) | Corn plant response rating (corn [2]) | Plant response rating, Corn (corn [2]; [7]) | Foxtail, Giant plant response rating (foxtail, giant; [8]) | Plant response rating (scale of 0 to 100 where 0 is no effect and 100 is complete control), Galium (galium; Postemergence) | Galium plant response rating (galium) | Plant response rating, Galium (galium; [7]) | Plant response rating, Barnyardgrass (barnyardgrass) | Plant response rating (scale of 0 to 100 where 0 is no effect and 100 is complete control), Ragweed (ragweed; Postemergence) | Ragweed plant response rating (ragweed) | Plant response rating, Ragweed (ragweed; [7]) | Plant response rating (scale of 0 to 100 where 0 is no effect and 100 is complete control), Waterhemp (waterhemp; Postemergence) | Waterhemp plant response rating (waterhemp) | Plant response rating, Waterhemp (waterhemp; [7]) | Plant response rating (scale of 0 to 100 where 0 is no effect and 100 is complete control), Pigweed (pigweed; Postemergence) | Pigweed plant response rating (pigweed) | further results
CCONC(=O)c1cc(CC)n(Cc2ccnc(C(F)(F)F)c2)n1 [Compound 77] | 80 | 20 | 40 | 80 | 0 | 5 | 10 | 90 | 5 | 15 | 20 | 0 | 5 | 10 | 10 | 10 | 10 | 65 | 50 | 55 | Crabgrass, Large plant response rating (crabgrass, large; [5]): 100; Crabgrass, Large plant response rating (crabgrass, large; [6]): 100; Plant response rating (scale of 0 to 100), Morningglory (morningglory [1]; Postemergence, 16 g ai/ha): 10; Plant response rating (scale of 0 to 100), Corn (corn [2]; Postemergence, 16 g ai/ha): 0; Foxtail, Giant plant response rating (foxtail, giant; Postemergence, 500 g ai/ha, visual rating after approx. 10 days, 0 to 100 scale (0 no effect, 100 complete control)): 100; Plant response rating (scale of 0 to 100), Galium (galium; Postemergence, 16 g ai/ha): 5; Plant response rating (scale of 0 to 100), Ragweed (ragweed; Postemergence, 16 g ai/ha): 5; Velvetleaf plant response rating (velvetleaf; [5]): 80; Velvetleaf plant response rating (velvetleaf; [6]): 20; Plant response rating (scale of 0 to 100), Waterhemp (waterhemp; Postemergence, 16 g ai/ha): 10; Morningglory plant response rating (morningglory [3]; [5]): 50; Morningglory plant response rating (morningglory [3]; [6]): 20; Plant response rating (scale of 0 to 100), Pigweed (pigweed; Postemergence, 16 g ai/ha): 25; Plant response rating, Pigweed (pigweed; [7]): 60; Corn plant response rating (corn [4]; [5]): 30; Corn plant response rating (corn [4]; [6]): 10
CCc1cc(C(=O)NOC(C)C)nn1Cc1ccnc(OC(F)F)c1 [Compound 126] | 95 | 60 | 80 | 95 | 5 | 10 | 35 | 90 | 50 | 50 | 55 | 40 | 30 | 35 | 55 | 40 | 50 | 70 | 25 | 50 | Plant response rating (scale of 0 to 100 where 0 is no effect and 100 is complete control), Morningglory (morningglory [1]; Postemergence, 31 g ai/ha, visually evaluated after 13 to 15 days): 40; Plant response rating, Morningglory (morningglory [1]; [9]): 80; Plant response rating, Corn (corn [2]; [9]): 55; Foxtail, Giant plant response rating (foxtail, giant; Postemergence, 500 g ai/ha, 0 to 100 scale (0 no effect, 100 complete control)): 90; Plant response rating, Galium (galium; [9]): 70; Plant response rating, Ragweed (ragweed; [9]): 80; Plant response rating (scale of 0 to 100), Ryegrass, Italian (ryegrass, Italian; Preemergence, 250 g ai/ha): 90; Ryegrass, Italian plant response rating (ryegrass, Italian; 31 g ai/ha, visual rating, scale 0 to 100 (0 no effect, 100 complete control), 13 to 15 days): 15; Ryegrass, Italian plant response rating (ryegrass, Italian; 62 g ai/ha, scale 0 to 100 (0 no effect, 100 complete control), 13 to 15 days): 60; Ryegrass, Italian plant response rating (ryegrass, Italian; 125 g ai/ha, scale 0 to 100, 0 is no effect, 100 is complete control): 90; Plant response rating, Waterhemp (waterhemp; [9]): 90; Plant response rating, Pigweed (pigweed; [9]): 65; Plant response rating, Pigweed (pigweed; [7]): 40
